Test system: Normal human keratinocytes
Experiment: Mitochondrial ROS production after rotenone-induced production of ROS (MITOSOX staining)
Format: cell-based
Conditions: 1 μM Rotenone for 4 hours, no extract
Procedure: The purpose of this study is to determine the influence of the Truffle extract according to example 2 regarding the mitochondrial Reactive oxygen Species (ROS) production. Mitochondrial ROS were induced by rotenone, an electron transport chain complex inhibitor.
Method: Normal human keratinocytes extracted from a […] […] abdominal skin were seeded in 8 well culture PERMANOX® plastic slides (Thermo Scientific, Waltham, Mass., USA). Cells were pre-treated with two applications per day of the Truffle extract of example 2 (at 0.01% and 0.05%) for 48 h in KSFM medium (Gibco, Auckland, NZ) supplemented with 50 μg·ml-1 bovine pituitary extract (Gibco), 5 ng·ml-1 human recombinant EGF (Gibco) and 0.1 mg·ml-1 PRIMOCIN™ (Invivogen, San Diego, Calif., USA). Then cells were submitted to 1 μM Rotenone application for 4 hours. Immediately after the stress, culture medium was replaced with fresh KSFM for 1 hour. At the end of incubation, a 5 μM MITOSOX® (Life Technologies, Carlsbad, Calif., USA) solution was incubated further for 20 min at 37° C. in 5% CO2 atmosphere. […] Digital images were acquired with an inverted Zeiss Axiovert 200M microscope (Zeiss, Oberkochen, Germany) with a 20× objective. […] Statistical significance of the data was assessed by paired Student's t-test (n=3, p<0.05 was considered significant; p<0.01 as very significant and p<0.005 as highly significant).

## C=C(C)[C@H]1Cc2c(ccc3c2O[C@@H]2COc4cc(OC)c(OC)cc4[C@@H]2C3=O)O1 [rotenone]
  increase in ROS production in keratinocytes compared to untreated control: 45%
